Measured values: patent US12171743B2, “Forms of aticaprant” (Janssen Pharmaceuticals, Inc., priority 2022, dated 2024)

Tests used:
subjects with MDD [1] = experiment: SHAPS total score (anhedonia), same study; assay type: in vivo, human; conditions: for SHAPS Total Score Change from Baseline LSMean Difference (SE) Treatment-Placebo: MMRM
Text: To assess a potential effect on anhedonia, an anhedonia scale may be used. For example, the Snaith-Hamilton Pleasure Scale (SHAPS) analysis is a validated scale for the measurement of anhedonia. The SHAPS is a subject completed scale in which subjects score whether or not they experience pleasure in performing a list of activities or experiences. The SHAPS is a self-reported 14-item instrument, developed for the assessment of hedonic capacity. Subjects score whether they experience pleasure in performing a list of activities or experiences. Subjects can rate the answers as 1˜4 where 1 indicates “Definitely agree”, 2 indicates “Agree”, 3 indicates “Disagree” and 4 indicates “Definitely disagree”. The subject's item responses are summed to provide a total score ranging from 14 to 56. A higher total SHAPS score indicates higher levels of current anhedonia. Physician/clinical judgment can be used to assess anhedonia separately or in conjunction with an anhedonia scale.
In some embodiments, the patient has moderate anhedonia. In other embodiments, the patient has severe anhedonia. An assessment of moderate or severe anhedonia is typically determined physician/clinical judgment and/or by one or more tests that provide insight into whether a patient has anhedonia. For example, the severity of the anhedonia may be determined using the SHAPS method. In some embodiments, a patient with moderate or severe anhedonia is considered to have a high level of anhedonia. For example, a patient with a SHAPS score of 38 or greater is considered to have moderate to severe anhedonia that can be considered a high level of anhedonia. In some embodiments, a high level of anhedonia is reflected by a SHAPS score of at least about 40, about 42, about 44, about 46, about 48, about 50, about 52, about 54, about 56, […]. A patient with mild or no anhedonia would be considered to have a low level of anhedonia that is assessed by physician/clinical judgment and/or one or more tests. For example, a patient with a SHAPS score of less than 38 is considered to have low anhedonia. In certain embodiments, a patient with mild anhedonia may have a SHAPS score of 20 to less than 38, for example, a SHAPS score of 20 to about 36, about 22 to about 36, about 24 to about 36, about 26 to about 36, about 26 to about 34, about 26 to about 32, about 26 to about 30, about 26 to about 28, about 28 to about 36, about 28 to about 36, about 30, to about 36, about 32 to about 36, about 34 to about 36, about 20 to about 34, about 22 to about 34, about 24 to about 34, about 26 to about 32, about 26 to about 30, about 26 to about 28, about 28 to about 36, about 28 to about 34, about 28 to about 32, about 28 to about 30, about 30 to about 36, about 30 to about 34, about 30 to about 32, about 32 to about 36, about 32 to about 34, or about 34 to about 36. Typically, a SHAPS score of less than 20 can be considered to correspond to normal hedonic functioning, and for purposes of this disclosure, would fall into the low category of anhedonia, e.g., a SHAPS score of less than 38.
The secondary objectives are: • i. […] To investigate the effect of aticaprant versus placebo on depression related anhedonia as assessed by the SHAPS. • iv.

subjects with MDD [2] = experiment: ASEX sexual functioning score; assay type: in vivo, human
Text: As used herein, the term “decrease in sexual functioning” refers to reducing or lessening of one or more components of the human sex drive, i.e., sexual functioning. In some embodiments, the sexual functioning comprises one or more of sexual drive, sexual arousal, vaginal lubrication, erection, orgasm achievement, or orgasm satisfaction. In other embodiments, the sexual functioning comprises sexual drive. In further embodiments, the sexual functioning comprises vaginal lubrication satisfaction. In further embodiments, the sexual functioning comprises orgasm achievement. In yet other embodiments, the sexual functioning comprises orgasm satisfaction. Desirably, the patient's sexual functioning is assessed at the time of initial administration of the crystalline Form I of aticaprant, crystalline Form II of aticaprant, crystalline Form III of aticaprant, or amorphous aticaprant. Thus, the patient's sexual functioning while taking crystalline Form I of aticaprant, crystalline Form II of aticaprant, crystalline Form III of aticaprant, or amorphous aticaprant can be compared to the patient's sexual functioning before administration of crystalline Form I of aticaprant, crystalline Form II of aticaprant, crystalline Form III of aticaprant, or amorphous aticaprant. Sexual functioning may be assessed by using standard scales and techniques such as the Arizona Sexual Experience Scale (ASEX). The ASEX is used to investigate whether crystalline Form I of aticaprant, crystalline Form II of aticaprant, crystalline Form III of aticaprant, or amorphous aticaprant has a further positive or negative effect on sexual function. The ASEX is 5 item rating scale administered to patients that quantifies sexual drive, sexual arousal, vaginal lubrication or penile erection, ability to reach orgasm and satisfaction. Scores range from 5 to 30, and two different versions of the scale are available (males and females).
Patients had their sexual functioning measured using a standard, well accepted rating scale: ASEX. See, Table 68.

[3] = fITT Analysis Set, Treatment Week 5
[4] = number of subjects, eITT Analysis Set, Treatment Baseline, N 60
[5] = number of subjects, eITT Analysis Set, Treatment Week 6, N 59
[6] = number of subjects, fITT Analysis Set, Baseline/Day 22 (before treatment), N 83
[7] = number of subjects, fITT Analysis Set, Treatment Baseline, N 83

With Cc1cc(C)cc(C2CCCN2Cc2ccc(Oc3ccc(C(N)=O)cc3F)cc2)c1 (stereo not drawn) [aticaprant, 3-fluoro-4-4-2-(3,5-dimethylphenyl) pyrrolidin-1-yl-methylphenoxybenzamide] the “SHAPS Total Score Change from Baseline LSMean Difference (SE) Treatment-Placebo” value (subjects with MDD [1]; eITT Analysis Set, Treatment Week 1) was −0.8, the “SHAPS Total Score Change from Baseline LSMean Difference (SE) Treatment-Placebo” value (subjects with MDD [1]; eITT Analysis Set, Treatment Week 3) was −1.4 and the “SHAPS Total Score Change from Baseline LSMean Difference (SE) Treatment-Placebo” value (subjects with MDD [1]; eITT Analysis Set, Treatment Week 4) was −1.4. For the same molecule, the “SHAPS Total Score Change from Baseline LSMean Difference (SE) Treatment-Placebo” value (subjects with MDD [1]; eITT Analysis Set, Treatment Week 5) was −0.5, the “SHAPS Total Score Change from Baseline LSMean Difference (SE) Treatment-Placebo” value (subjects with MDD [1]; eITT Analysis Set, Treatment Week 6) was −0.7 and the “SHAPS Total Score Effect Size” value (subjects with MDD [1]; eITT Analysis Set, Treatment Week 6, negative favors aticaprant) was −0.07. The “SHAPS total score: mean change from treatment baseline (SD)” value (subjects with MDD [1]; eITT, Treatment Week 6) was −4.6 (6.23), the “SHAPS total score: observed effect size” value (subjects with MDD [1]; eITT, Treatment Week 6) was 0.07 and the “Frequency of Subjects: No Anhedonia (SHAPS Total Score < 20)” value (subjects with MDD [1]; fITT Analysis Set, Baseline/Day 22 (before treatment), N 83) was 1.2%. For the same molecule, the “Frequency of Subjects: No Anhedonia (SHAPS Total Score < 20)” value (subjects with MDD [1]; fITT Analysis Set, Treatment Baseline, N 83 (Table 64)) was 1.2%, the “SHAPS Total Score Change from Baseline LSMean Difference (SE) Treatment-Placebo” value (subjects with MDD [1]; fITT Analysis Set, Treatment Week 1) was −1.0 (0.72) and the “SHAPS Total Score Change from Baseline LSMean Difference (SE) Treatment-Placebo” value (subjects with MDD [1]; fITT Analysis Set, Treatment Week 3) was −1.4 (0.73). For the same molecule, the “SHAPS Total Score Change from Baseline LSMean Difference (SE) Treatment-Placebo” value (subjects with MDD [1]; fITT Analysis Set, Treatment Week 4) was −1.6 (0.73), the “SHAPS Total Score Mean Change from Baseline (SD)” value (subjects with MDD [1]; [3]) was −4.3 (5.70) and the “SHAPS Total Score Change from Baseline LSMean Difference (SE) Treatment-Placebo” value (subjects with MDD [1]; [3]) was −0.8 (0.73). For the same molecule, the “SHAPS Total Score Change from Baseline LSMean Difference (SE) Treatment-Placebo” value (subjects with MDD [1]; fITT Analysis Set, Treatment Week 6) was −0.8 (0.73), the “Frequency of Subjects: High Level of Anhedonia (SHAPS Total Score >= 38)” value (“Frequency … (SHAPS Total Score >= 38)” for short) (subjects with MDD [1]; [4]) was 26 and the “Frequency of Subjects: Low Level of Anhedonia Score < 20) Total Score < 38)” value (subjects with MDD [1]; [4]) was 34. For the same molecule, the “Frequency of Subjects: No Anhedonia (SHAPS Total)” value (subjects with MDD [1]; [4]) was 0, the “Frequency … (SHAPS Total Score >= 38)” value (subjects with MDD [1]; [5]) was 8 and the “Frequency of Subjects: Low Level of Anhedonia Score < 20) Total Score < 38)” value (subjects with MDD [1]; [5]) was 48. For the same molecule, the “Frequency of Subjects: No Anhedonia (SHAPS Total)” value (subjects with MDD [1]; [5]) was 3, the “Frequency of Subjects: Anhedonia (SHAPS Total Score >= 20)” value (subjects with MDD [1]; [6]) was 82 and the “Frequency of Subjects: No Anhedonia (SHAPS Total Score < 20)” value (subjects with MDD [1]; [6]) was 1. For the same molecule, the “Frequency … (SHAPS Total Score >= 38)” value (subjects with MDD [1]; [7]) was 30, the “Frequency of Subjects: Low Level of Anhedonia (20 >= SHAPS Total Score < 38)” value (subjects with MDD [1]; [7]) was 52 and the “Frequency of Subjects: No Anhedonia (SHAPS Total Score < 20)” value (subjects with MDD [1]; number of subjects, fITT Analysis Set, Treatment Baseline, N 83 (Table 64)) was 1. For the same molecule, the “sexual functioning (in words)” value (subjects with MDD [2]; ASEX) was “notable improvements”, the ASEX score (subjects with MDD [2]; Baseline, n = 85) was 21.26 and the “ASEX total score: mean change from treatment baseline (SD)” value (subjects with MDD [2]; to week 6, lower score indicates improvement) was −1.5 (4.02) points.
